Measurements from publication PMC9399641, “Inhibition mechanism of alpha-amylase, a diabetes target, by a steroidal pregnane and pregnane glycosides derived from Gongronema latifolium Benth” (Frontiers in Molecular Biosciences, 2022).
pIC50: −log10 of the molar value. Read-outs that look alike come from different tables or passages of the source. Marks after values point to notes of the source that are not given here.

Legend:
[1] = molecular target: T1, alpha-amylase from porcine pancreas (Sus scrofa, UniProt P00690); assay: alpha-amylase inhibition assay (DNSA method); assay type: biochemical; details: for LogIC50: isolated compounds and acarbose, log of IC50 in uM
T1 sequence (P00690 16-511): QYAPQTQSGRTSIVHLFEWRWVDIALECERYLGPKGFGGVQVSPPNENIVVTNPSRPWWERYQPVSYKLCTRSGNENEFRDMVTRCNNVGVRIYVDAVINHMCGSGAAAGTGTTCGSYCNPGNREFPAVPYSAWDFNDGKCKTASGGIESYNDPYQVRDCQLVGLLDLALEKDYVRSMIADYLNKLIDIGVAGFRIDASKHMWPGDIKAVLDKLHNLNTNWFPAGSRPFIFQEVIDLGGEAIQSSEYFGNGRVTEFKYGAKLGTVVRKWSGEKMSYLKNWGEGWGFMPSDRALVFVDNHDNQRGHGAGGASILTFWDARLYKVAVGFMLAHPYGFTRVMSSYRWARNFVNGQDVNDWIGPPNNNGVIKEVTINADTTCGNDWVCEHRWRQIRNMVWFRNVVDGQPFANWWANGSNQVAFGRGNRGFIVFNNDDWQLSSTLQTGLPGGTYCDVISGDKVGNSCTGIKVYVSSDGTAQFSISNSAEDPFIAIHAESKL
Method: Varying concentrations of the pregnane-rich fractions (40–200 μg/ml) and those of the isolated compounds (10–50 μg/ml) were prepared in DMSO. Briefly, 100 μL of the test substance was reacted with 200 μl of alpha-amylase (alpha-amylase from porcine pancreas, EC 3.2.1.1, type VI, Sigma) and 100 μl of […] phosphate buffer (pH 6.9) of 0.02 M sodium phosphate (pH 6.9). Subsequent to incubation for 20 min, 100 μL of 1% starch substrate was added. Blank controls where the enzyme was replaced with the buffer were also prepared alongside. Following incubation of the reaction mixture for 5 min, 500 μl of dinitrosalicylic acid reagent was mixed with the control and the test. These were kept in a water bath at a boiling temperature for 5 min.
The half-maximal inhibitory concentration (IC50) values were determined by fitting inhibition parameters with standard log inhibitor vs. normalized response models using nonlinear regression as described by [Buchwald (2020)].

[2] = tested on: albino rats; assay: oral starch tolerance test; assay type: in vivo; details: for PBG / % reduction of AUC / % reduction of PBG / AUC: 3.0 g/kg starch; for PBG / AUC: mean ± SEM n = 4; for % reduction of AUC / % reduction of PBG: vs control; for blood glucose level: oral, starch-challenged rats; for AUC: blood glucose 0-120 min
Method: The animal study was reviewed and approved by the University Ethical Review Committee of the University of Ilorin (Protocol Identification Code: UERC/LSC/183). An oral starch tolerance test was carried out as described in a previous study ([Poovitha and […], 2016]). […] After 10 min, the blood glucose level was estimated (0 min), and the rats were orally administered with 3.0 g/kg starch. Then, the blood glucose level was estimated at 30, 60, and 120 min after the administration using a glucometer. Peak blood glucose (PBG) was determined by observing the blood glucose level during the previously mentioned time intervals, and the area under the curve (AUC) was calculated.

Row | Compound | PBG ([2]; 10 mg/kg oral) | % reduction of AUC ([2]; 10 mg/kg oral) | % reduction of PBG ([2]; 10 mg/kg oral) | blood glucose level ([2]; in words) | LogIC50 [1] | pIC50 ([1]; read-out: IC50) | pIC50 [1] | also measured
1 | C[C@H]1O[C@H](O[C@H]2[C@H](O)[C@@H](O)[C@@H](O[C@H]3[C@H](O)[C@@H](O)C(O)O[C@@H]3CO)O[C@@H]2CO)[C@H](O)[C@@H](O)[C@@H]1N[C@H]1C=C(CO)[C@@H](O)[C@H](O)[C@H]1O (some centres unmarked) [Acarbose, acarbose, reference compound] | 2.85 ± 0.05^ab mmol/L | 7.00% | 20.83% | significant decrease | – | – | – | percentage inhibitory activity on porcine alpha-amylase ([1]; in words, fractions 40–200 μg/ml, compounds 10–50 μg/ml): greatest inhibition effects
2 | CC(O)[C@H]1CC[C@@]2(O)[C@]1(C)[C@H](O)[C@@H](O)[C@@H]1[C@@]3(C)CC[C@H](O)CC3=CC[C@]12O (some centres unmarked) [P1, marsectohexol] | 2.90 ± 0.10^ab mmol/L | 6.36% | 19.44% | significantly reduced | 1.000 | 5.00 | – | AUC ([2]; 10 mg/kg oral): 883.5 ± 19.50 mmol·min/L; AUC ([2]; 20 mg/kg oral): 699.0 ± 48.0 mmol·min/L; PBG ([2]; 20 mg/kg oral): 2.15 ± 0.45^b mmol/L; % reduction of AUC ([2]; 20 mg/kg oral): 25.91%; peak blood glucose (PBG) and area under the curve (AUC) ([2]; 20 mg/kg oral, after starch loading, in words): significantly reduced; blood glucose level ([2]; in words, listed as marsectohexol): significant decrease
3 | CC=C(C)C(=O)OC1C2C3(C)CCC(OC4CC(OC)C(OC5OC(C)C(O)C(OC)C5O)C(C)O4)CC3=CCC2(O)C2(O)CCC(C(C)=O)C2(C)C1OC(=O)C(C)=CC [P2, 3-O-[6-deoxy-3-O-methyl-β-D-allopyranosyl-(1→14)-β-D-oleandropyranosyl]-11,12-di-O-tigloyl-17β-marsdenin] | – | – | – | – | 1.083 | – | 4.92 | –
4 | COC1CC(OC2CCC3(C)C(=CCC4(O)C3C(O)C(O)C3(C)C(C(C)=O)CCC43O)C2)OC(C)C1OC1OC(C)C(O)C(OC)C1O [P3, 3-O-[6-deoxy-3-O-methyl-β-D-allopyranosyl-(1→4)-β-D-oleandropyranosyl]-17β-marsdenin] | – | – | – | – | 1.147 | – | 4.85 | –
5 | COC1C(O)C(C)OC(OC2C(O)CC(OC3CCC4(C)C(=CCC5(O)C4C(O)C(O)C4(C)C(C(C)=O)CCC54O)C3)OC2C)C1O [P4, 3-O-[6-deoxy-3-O-methyl-β-D-allopyranosyl-(1→4)-β-D-canaropyranosyl]-17β-marsdenin] | – | – | – | – | 1.137 | 4.86 | – | –
